Reference: ChEMBL document CHEMBL1150306, “2-Trifluoroacetylthiophenes, a novel series of potent and selective class II histone deacetylase inhibitors” (Bioorg Med Chem Lett, 2008)

Tests used:
[1] = target: T1, Histone deacetylase 3 (Homo sapiens, UniProt O15379); experiment: Inhibition of HDAC3
[2] = target: Histone deacetylase 4 (Homo sapiens, UniProt P56524, H976Y); experiment: Inhibition of HDAC4GOF mutant expressed in Escherichia coli
[3] = target: Histone deacetylase 4 (Homo sapiens, UniProt P56524); experiment: Inhibition of wild type HDAC4 expressed in Escherichia coli
[4] = target: T2, Protein deacetylase HDAC6 (Homo sapiens) (UniProt Q9UBN7); experiment: Inhibition of HDAC6 at 9 nM
T2 sequence (whole entry): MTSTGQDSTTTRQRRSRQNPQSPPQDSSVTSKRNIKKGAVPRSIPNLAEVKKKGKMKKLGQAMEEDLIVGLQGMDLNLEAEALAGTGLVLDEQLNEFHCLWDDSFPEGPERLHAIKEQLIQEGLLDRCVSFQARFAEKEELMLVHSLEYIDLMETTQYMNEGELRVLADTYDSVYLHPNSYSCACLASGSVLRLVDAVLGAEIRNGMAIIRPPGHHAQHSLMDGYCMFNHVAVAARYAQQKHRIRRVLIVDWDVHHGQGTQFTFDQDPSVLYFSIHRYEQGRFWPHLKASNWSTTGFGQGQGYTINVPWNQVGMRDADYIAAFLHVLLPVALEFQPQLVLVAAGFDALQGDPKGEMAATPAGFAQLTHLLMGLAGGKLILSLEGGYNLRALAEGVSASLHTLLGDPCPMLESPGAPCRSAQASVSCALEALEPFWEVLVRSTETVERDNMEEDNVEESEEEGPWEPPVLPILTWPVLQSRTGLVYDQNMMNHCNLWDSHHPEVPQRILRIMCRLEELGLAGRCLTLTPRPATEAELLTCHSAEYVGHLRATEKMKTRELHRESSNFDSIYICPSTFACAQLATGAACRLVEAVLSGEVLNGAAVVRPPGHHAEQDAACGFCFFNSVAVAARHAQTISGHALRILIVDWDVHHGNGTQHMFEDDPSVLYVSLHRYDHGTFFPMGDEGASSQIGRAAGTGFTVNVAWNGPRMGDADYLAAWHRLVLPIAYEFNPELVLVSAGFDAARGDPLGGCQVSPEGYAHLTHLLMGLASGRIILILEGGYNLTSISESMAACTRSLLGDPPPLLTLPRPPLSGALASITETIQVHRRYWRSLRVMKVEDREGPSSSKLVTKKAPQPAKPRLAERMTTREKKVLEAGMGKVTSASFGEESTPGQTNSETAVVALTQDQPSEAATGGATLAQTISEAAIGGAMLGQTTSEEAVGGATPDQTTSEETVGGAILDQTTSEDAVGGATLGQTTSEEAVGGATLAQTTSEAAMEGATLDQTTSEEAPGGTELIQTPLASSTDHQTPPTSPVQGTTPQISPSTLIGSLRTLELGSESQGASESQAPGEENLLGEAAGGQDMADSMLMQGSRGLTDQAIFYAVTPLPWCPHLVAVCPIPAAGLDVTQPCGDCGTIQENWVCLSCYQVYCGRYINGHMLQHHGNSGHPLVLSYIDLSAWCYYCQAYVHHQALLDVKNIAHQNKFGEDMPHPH

[5] = target: Histone deacetylase 1 (Homo sapiens, UniProt Q13547); experiment: Inhibition of HDAC1
[6] = target: T1, Histone deacetylase 3; experiment: Inhibition of HDAC3 at 5 uM
[7] = target: T3, Protein deacetylase HDAC6 (Homo sapiens, UniProt Q9UBN7); experiment: Inhibition of HDAC6
T3 sequence (Q9UBN7 whole entry): T2 sequence (whole entry)

[8] = target: Tubulin; experiment: Inhibition of tubulin deacetylation in human HCT116 cells; type: cell-based; conditions: hct-116

Chain of Histone deacetylase 4 (Homo sapiens, UniProt P56524, H976Y) (P56524 whole entry H976Y): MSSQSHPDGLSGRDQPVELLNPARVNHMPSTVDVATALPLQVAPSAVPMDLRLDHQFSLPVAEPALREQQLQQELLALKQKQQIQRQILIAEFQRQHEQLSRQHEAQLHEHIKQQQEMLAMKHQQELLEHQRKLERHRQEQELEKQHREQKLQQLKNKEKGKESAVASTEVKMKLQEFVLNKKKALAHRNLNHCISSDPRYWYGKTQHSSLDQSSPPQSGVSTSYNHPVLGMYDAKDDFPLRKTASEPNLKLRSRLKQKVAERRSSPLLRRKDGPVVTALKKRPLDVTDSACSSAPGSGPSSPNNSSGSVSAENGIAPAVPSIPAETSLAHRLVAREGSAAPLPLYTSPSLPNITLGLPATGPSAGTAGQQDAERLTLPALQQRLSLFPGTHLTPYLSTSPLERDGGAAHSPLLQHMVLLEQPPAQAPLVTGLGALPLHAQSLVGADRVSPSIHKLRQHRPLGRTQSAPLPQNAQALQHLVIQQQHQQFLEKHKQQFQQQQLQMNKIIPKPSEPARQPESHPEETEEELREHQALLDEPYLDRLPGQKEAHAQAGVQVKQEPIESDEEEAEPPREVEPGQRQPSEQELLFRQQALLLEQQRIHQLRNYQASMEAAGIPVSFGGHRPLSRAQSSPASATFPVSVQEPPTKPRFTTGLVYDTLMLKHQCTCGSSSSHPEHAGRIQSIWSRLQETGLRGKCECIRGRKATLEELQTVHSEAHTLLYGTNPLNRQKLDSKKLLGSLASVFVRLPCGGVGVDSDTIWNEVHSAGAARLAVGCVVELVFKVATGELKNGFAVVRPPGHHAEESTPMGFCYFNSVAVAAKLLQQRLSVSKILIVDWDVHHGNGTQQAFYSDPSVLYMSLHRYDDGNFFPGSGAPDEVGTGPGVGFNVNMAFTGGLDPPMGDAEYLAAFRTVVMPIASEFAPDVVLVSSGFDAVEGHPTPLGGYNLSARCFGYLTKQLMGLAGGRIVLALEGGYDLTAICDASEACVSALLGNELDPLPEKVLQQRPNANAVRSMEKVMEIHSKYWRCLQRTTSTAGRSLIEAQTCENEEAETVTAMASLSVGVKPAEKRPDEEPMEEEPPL
T1 sequence (O15379 whole entry): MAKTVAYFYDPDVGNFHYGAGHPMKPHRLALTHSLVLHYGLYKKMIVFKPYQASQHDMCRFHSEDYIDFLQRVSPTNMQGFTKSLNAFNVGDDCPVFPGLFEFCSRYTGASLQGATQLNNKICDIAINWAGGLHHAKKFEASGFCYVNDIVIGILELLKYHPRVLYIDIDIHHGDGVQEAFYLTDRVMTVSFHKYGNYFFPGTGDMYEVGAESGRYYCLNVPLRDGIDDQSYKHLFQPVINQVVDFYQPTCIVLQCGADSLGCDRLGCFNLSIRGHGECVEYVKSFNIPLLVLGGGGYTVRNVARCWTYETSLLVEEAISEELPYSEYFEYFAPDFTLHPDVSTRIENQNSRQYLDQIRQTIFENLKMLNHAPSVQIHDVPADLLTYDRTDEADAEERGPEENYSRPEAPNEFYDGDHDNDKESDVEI
Chain of Histone deacetylase 4 (Homo sapiens, UniProt P56524) (P56524 whole entry): as the sequence (P56524 whole entry H976Y) above, with Y976H counted along it
Chain of Histone deacetylase 1 (Q13547 whole entry): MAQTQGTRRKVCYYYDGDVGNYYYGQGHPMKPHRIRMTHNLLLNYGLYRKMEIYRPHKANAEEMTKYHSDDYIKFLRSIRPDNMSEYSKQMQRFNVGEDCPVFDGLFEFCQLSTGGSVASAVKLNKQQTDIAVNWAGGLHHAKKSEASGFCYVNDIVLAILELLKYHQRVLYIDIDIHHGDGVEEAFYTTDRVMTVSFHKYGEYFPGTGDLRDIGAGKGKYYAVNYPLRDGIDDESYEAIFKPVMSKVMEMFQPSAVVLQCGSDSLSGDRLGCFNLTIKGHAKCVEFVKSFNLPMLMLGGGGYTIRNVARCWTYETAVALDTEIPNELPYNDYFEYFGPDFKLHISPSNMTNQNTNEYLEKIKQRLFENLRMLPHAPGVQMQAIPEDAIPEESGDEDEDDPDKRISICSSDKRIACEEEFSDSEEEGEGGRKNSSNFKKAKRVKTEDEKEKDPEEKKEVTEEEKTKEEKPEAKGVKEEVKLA

Structure (SMILES)	IC50 [1] [nM]	IC50 [2] [nM]	IC50 [3] [nM]	inhibition [4] [%]	IC50 [5] [µM]	inhibition [6] [%]	IC50 [7] [nM]	IC50 [8] [µM]
C[C@@H](NC(=O)c1ccc(C(=O)NO)s1)c1ccccc1	10	100	2700	94				
O=C(c1ccc(C(=O)C(F)(F)F)s1)N1CCn2c(-c3ccccc3)cnc2C1		370	320		5.5	44	310	
CN(Cc1ccc2nccnc2c1)C(=O)c1ccc(C(=O)C(F)(F)F)s1	670	87	98		0.58		89	12
